molecular target: T1, CDK2/Cyclin E complex (Homo sapiens, UniProt P24941); experiment: CDK2/Cyclin E fluorescence-based microfluidic mobility shift assay (CDK2 Biochemical Caliper Assay); conditions: read-out: Biochemical CDK2/CyclinE Caliper IC50
T1 construct: purchased Eurofins 14-475
Method: Compounds of the present disclosure were tested in a CDK2/Cyclin E fluorescence-based microfluidic mobility shift assay (PerkinElmer).
The active wild type CDK2/Cyclin E complex was purchased from Eurofins (14-475). Compound stocks were prepared in DMSO and were serially diluted into 11 concentrations by 3-fold dilution. […] Compounds were incubated in the presence of CDK2/Cyclin E complex and ATP for 30 minutes at room temperature. Catalytic reaction was initiated with the addition of 5 uL of a 4× peptide solution containing 6 uM fluorescently label substrate peptide, FL Peptide 18 (aa sequence 5-FAM-QSPKKG, PerkinElmer, 760362) in 1× reaction buffer.
The final reaction components were 0.1 nM CDK2/Cyclin E, 2000 uM ATP and 1.5 uM FL Peptide 18 and 1% DMSO. Reactions were incubated RT for 20 hr and terminated with 75 uL of a stopping solution containing 0.5 M EDTA. Samples were analyzed using a LabChip EZ reader (PerkinElmer).

SMILES	IC50 [µM]
COCc1cc2c(Nc3cc([C@H]4C[C@@H](Oc5nncn5C(C)C)CO4)[nH]n3)nccn2n1 [Example 671]	0.1 to 0.25
COc1cc(Nc2cc(C3CCCC3)[nH]n2)nc2sccc12 [Example 810]	1 to 100
Cc1cc(CC(=O)Nc2cc([C@H]3C[C@H]3COC(=O)NC(C)C)[nH]n2)on1 (single isomer, unassigned) [Example 137]	1 to 100
COCc1cc(C(=O)Nc2cc([C@H]3CC[C@@H](Oc4cn[nH]c4C(C)C)C3)[nH]n2)n(C)n1 [Example 629]	0.1 to 0.25
CC1(NC(=O)O[C@H]2CO[C@@H](c3cc(Nc4ccnc5nc[nH]c45)n[nH]3)C2)CC1 [Example 737]	0.1 to 0.25
Cc1cc(CC(=O)Nc2cc([C@H]3CC[C@H](N(C)C(=O)NC(C)C)C3)[nH]n2)on1 (single isomer, unassigned) [Example 141]	1 to 100
Cc1cc(CC(=O)Nc2cc([C@@H]3CC[C@H](N(C)C(=O)NC(C)C)C3)[nH]n2)on1 (single isomer, unassigned) [Example 103]	1 to 100
Cc1cc(CC(=O)Nc2cc([C@H]3CC[C@@H](n4cc(C)[nH]c4=O)C3)[nH]n2)on1 (single isomer, unassigned) [Example 92]	0.25 to 1
Cc1ncccc1OC[C@H]1C[C@@H](c2cc(Nc3nccn4nccc34)n[nH]2)C1 [Example 513]	0.1 to 0.25
CC1(NC(=O)O[C@H]2CO[C@H](c3cc(Nc4nccc5nc(C(F)(F)F)cn45)n[nH]3)C2)CC1 [Example 898]	0.25 to 1
Oc1ccc2ccnc(Nc3cc(C4CCCC4)[nH]n3)c2c1 [Example 813]	1 to 100
Cc1cc(CC(=O)Nc2cc([C@H]3CC[C@@H](NC(=O)[C@H](O)C(C)C)C3)[nH]n2)on1 (single isomer, unassigned) [Example 452]	1 to 100
Cc1cc(CC(=O)Nc2cc([C@@H]3CC[C@H](Oc4cccnc4C)C3)[nH]n2)on1 (single isomer, unassigned) [Example 358]	0.25 to 1
COCc1cc(C(=O)Nc2cc([C@H]3CC[C@@H](c4cc(C(C)C)ncn4)C3)[nH]n2)n(C)n1 (single isomer, unassigned) [Example 601]	1 to 100
Cc1cc(CC(=O)Nc2cc([C@H]3CC[C@@H](Oc4cncnc4)C3)[nH]n2)on1 (single isomer, unassigned) [Example 362]	1 to 100
CCCCOc1ccc(Nc2cc(C3CCCC3)[nH]n2)nc1 [Example 808]	1 to 100
Oc1cc(Nc2cc(C3CCCC3)[nH]n2)ncn1 [Example 876]	1 to 100
COCc1cc(C(=O)Nc2cc([C@@H]3CC[C@H](Oc4cc(C(C)C)cnn4)C3)[nH]n2)n(C)n1 (single isomer, unassigned) [Example 493]	0.1 to 0.25

SMILES	IC50 [µM]
Cc1cc(C(F)(F)F)c(Nc2cc(C3CCCC3)[nH]n2)nn1 [Example 855]	1 to 100
CC(C)c1nc(Nc2cc([C@H]3C[C@@H](OC(=O)NC4(C)CC4)CO3)[nH]n2)c2cc[nH]c2n1 [Example 744]	0.1 to 0.25
Cc1cnc(Nc2cc(C3CCCC3)[nH]n2)c(C)n1 [Example 862]	1 to 100
COCc1cc(C(=O)Nc2cc([C@H]3CC[C@H](c4ccc(C)cn4)C3)[nH]n2)n(C)n1 (single isomer, unassigned) [Example 599]	1 to 100
COCc1cc2c(Nc3cc([C@H]4C[C@@H](COc5cccnc5)C4)[nH]n3)nccn2n1 [Example 586]	0.25 to 1
CC1(NC(=O)O[C@H]2CO[C@@H](c3cc(Nc4nccc5[nH]cnc45)n[nH]3)C2)CC1 [Example 730]	0.25 to 1
Cc1cc(CC(=O)Nc2cc([C@@H]3C[C@@H](OC(=O)NC4(C)CC4)CO3)[nH]n2)on1 (single isomer, unassigned) [Example 109]	1 to 100
Cc1cc(CC(=O)Nc2cc([C@H]3CC[C@@H](Oc4cccnc4C)C3)[nH]n2)on1 (single isomer, unassigned) [Example 359]	0.1 to 0.25
COCc1cc(C(=O)Nc2ncc([C@H]3C[C@@H](OC(=O)NC4(C)CC4)CO3)s2)n(C)n1 (single isomer, unassigned) [Example 905]	≤ 0.1
CCOCc1cc(C(=O)Nc2cc([C@H]3C[C@H](COC(=O)NC(C)C)C3)[nH]n2)n(C)n1 [Example 625]	1 to 100
COCc1cc(C(=O)Nc2cc([C@H]3C[C@H](COc4cccnc4)C3)[nH]n2)n(C)n1 [Example 562]	1 to 100
CC1(NC(=O)O[C@H]2CO[C@@H](c3cc(Nc4nccn5nc(COC(F)F)cc45)n[nH]3)C2)CC1 [Example 714]	≤ 0.1
COCc1cc(C(=O)Nc2cc([C@H]3CC[C@@H](c4ccc(C(C)C)cn4)C3)[nH]n2)n(C)n1 (single isomer, unassigned) [Example 552]	1 to 100
C[C@H](NC(=O)O[C@@H]1CO[C@H](c2cc(NC(=O)c3cc(OCC(F)F)nn3C)n[nH]2)C1)C1CC1 [Example 919]	≤ 0.1
Cc1cc(C)nc(Nc2cc(C3CCCC3)[nH]n2)n1 [Example 806]	1 to 100
COCc1cc(C(=O)Nc2cc([C@H]3C[C@]4(C3)NC(=O)N(CC(C)C)C4=O)n[nH]2)n(C)n1 [Example 541]	1 to 100
COCc1cc2c(Nc3cc([C@@H]4C[C@H](OC(=O)N5[C@@H](C)CC[C@@H]5C)CO4)[nH]n3)nccn2n1 (single isomer, unassigned) [Example 580]	≤ 0.1

More lines, now with the values ahead:

IC50 [µM]	SMILES
≤ 0.1	CC1(NC(=O)O[C@H]2CO[C@@H](c3cc(Nc4nccn5nccc45)n[nH]3)C2)CC1 [Example 781]
≤ 0.1	C#CC1(NC(=O)O[C@H]2CO[C@@H](c3cc(Nc4nccn5nc(COC)cc45)n[nH]3)C2)CC1 [Example 728]
≤ 0.1	CC[C@@H](C)NC(=O)O[C@H]1CO[C@@H](c2cc(Nc3nccn4nc(COC)cc34)n[nH]2)C1 [Example 654]
≤ 0.1	COCc1cc2c(Nc3cc([C@H]4C[C@@H](OC(=O)NC56CC(Cl)(C5)C6)CO4)[nH]n3)nccn2n1 [Example 712]
≤ 0.1	CNC(=O)O[C@@H]1CC[C@H](c2cc(Nc3ccc4c(n3)C(C)(C)NC4=O)n[nH]2)C1 (single isomer, unassigned) [Example 529]
≤ 0.1	CC(=O)Nc1cc([C@H]2CC[C@@H](Oc3nscc3C3CC3)C2)[nH]n1 (single isomer, unassigned) [Example 421]
≤ 0.1	CO[C@@H](C)c1cc2c(Nc3cc([C@H]4C[C@@H](OC(=O)NC5(C)CC5)CO4)[nH]n3)nccn2n1 (single isomer, unassigned) [Example 891]
≤ 0.1	COCc1cc2c(Nc3cc([C@@H]4C[C@H](OC(=O)N[C@H](C)C5CC5)CO4)[nH]n3)nccn2n1 [Example 765]
≤ 0.1	COCc1cc2c(Nc3cc([C@H]4C[C@@H](COc5nncn5C(C)(C)C)C4)[nH]n3)nccn2n1 [Example 636]
≤ 0.1	CC(C)NC(=O)O[C@@H]1CC[C@H](c2cc(Nc3nc4cccnc4o3)n[nH]2)C1 (racemic) [Example 140]
≤ 0.1	COCc1cc2c(Nc3cc([C@@H]4C[C@H](OC(=O)NC5(C(F)(F)F)CC5)CO4)[nH]n3)nccn2n1 [Example 764]
≤ 0.1	CC(C)NC(=O)O[C@H]1CO[C@@H](c2cc(Nc3nccn4nc(COC(C)C)cc34)n[nH]2)C1 [Example 658]
≤ 0.1	Cc1cc(CC(=O)Nc2cc([C@@H]3CC[C@H](Oc4nscc4C4CC4)C3)[nH]n2)on1 (single isomer, unassigned) [Example 128]
≤ 0.1	Cn1nc(COC(F)(F)F)cc1C(=O)Nc1cc([C@H]2C[C@@H](OC(=O)NC(C)(C)C)CO2)[nH]n1 [Example 713]
≤ 0.1	CC(C)NC(=O)O[C@@H]1CC[C@H](c2cc(Nc3nccn4nccc34)n[nH]2)C1 (single isomer, unassigned) [Example 138]
≤ 0.1	COCc1cc2c(Nc3cc([C@H]4C[C@@H](OC(=O)NC56CC(C5)C6)CO4)[nH]n3)nccn2n1 [Example 651]
≤ 0.1	CC1(NC(=O)O[C@H]2CO[C@@H](c3cc(Nc4nccc5nc(C(F)(F)F)cn45)n[nH]3)C2)CC1 [Example 901]
≤ 0.1	CC(C)NC(=O)O[C@@H]1CC[C@H](c2cc(Nc3nccn4nc(C(F)(F)F)cc34)n[nH]2)C1 (single isomer, unassigned) [Example 500]
≤ 0.1	COCc1cc2c(Nc3cc([C@H]4C[C@@H](OC(=O)NC(C)C)CO4)[nH]n3)nccn2n1 [Example 544]
≤ 0.1	COCc1cc(C(=O)Nc2cc([C@@H]3C[C@H](Oc4nnccc4C(C)C)CO3)[nH]n2)n(C)n1 [Example 459]
≤ 0.1	COCc1cc(C(=O)Nc2cc([C@H]3CC[C@@H](Oc4nnccc4C(C)C)C3)[nH]n2)n(C)n1 (single isomer, unassigned) [Example 410]
≤ 0.1	COCc1cc2c(Nc3cc([C@H]4C[C@@H](Oc5nncn5C5(C)CC5)CO4)[nH]n3)nccn2n1 [Example 707]
≤ 0.1	COCc1cc2c(Nc3cc([C@H]4C[C@@H](OC(=O)N[C@@H](C)C(F)(F)F)CO4)[nH]n3)nccn2n1 [Example 721]
≤ 0.1	COCc1cc2c(Nc3cc([C@H]4C[C@@H](COc5nncn5C5(C)CC5)C4)[nH]n3)nccn2n1 [Example 690]
≤ 0.1	COCc1cc(C(=O)Nc2cc([C@H]3C[C@@H](COc4[nH]ncc4C(C)(C)C)C3)[nH]n2)n(C)n1 [Example 691]
≤ 0.1	CC1(NC(=O)O[C@H]2CO[C@@H](c3cc(Nc4ncnc5sncc45)n[nH]3)C2)CC1 [Example 725]
≤ 0.1	CC(C)c1ccnnc1O[C@H]1CO[C@@H](c2cc(Nc3nccc4ncsc34)n[nH]2)C1 [Example 523]
≤ 0.1	CC(C)c1ccnnc1OC[C@H]1C[C@@H](c2cc(Nc3nccc4ncsc34)n[nH]2)C1 [Example 438]

Reference: US20240190855A1 (Relay Therapeutics, Inc., priority 2021, published 2024)
